{"source": "patent US20240358693A1", "about": "“METHODS OF TREATING PAIN” (Aisa Pharma, Inc., priority 2023, published 2024)", "test_system": "participants with SSc-RP", "experiment": "Scleroderma Health Assessment Questionnaire (SHAQ): disability indices and visual analog scales", "assay_type": "in vivo, human", "conditions": "Day 12", "source_text": "The standard, validated, patient reported outcome measures tool for SSc patients, the Scleroderma Health Assessment Questionnaire (SHAQ), will be used to assess the participant qualify of life. Details are attached in the Appendix. The participant quality of life will be scored, and a disability index calculated for each questionnaire completed by the patient at Screening and each in-clinic visit. The absolute change in participant quality of life from baseline to the end of each dosing period will be calculated similar to frequency data as before.\nThe SHAQ includes a Raynaud's VAS, which will be reported at screening and each in-clinic visit. The absolute change in Raynaud-VAS, assessed by the participants response to the SHAQ question ‘In the past 7 days, how much have your Raynaud's interfered with your daily activities?’ at baseline and the end of each dosing period will be calculated similar to frequency data as before.\nThe SHAQ is used to calculate a Disability Index to assess the participant qualify of life. The eight categories assessed by the Disability Index are 1) dressing and grooming, 2) arising, 3) eating, 4) walking, 5) hygiene, 6) reach, 7) grip, and 8) common daily activities. For each of these categories, patients report the amount of difficulty they have in performing two or three specific activities.\nThere are four possible responses for the Disability Index questions: • Without any difficulty=0 • With some difficulty=1 • With much difficulty=2 • Unable to do=3. • The highest score reported by the patient for any component question of the eight categories determines the score for that category. • If a component question is left blank or the response is too ambiguous to assign a score, then the score for that category is determined by the remaining completed question(s). • If all component questions are blank or if more than one answer is given, then follow up with the respondent is required. • If the respondent's mark is between the response columns, then move it to the closest one. If it's directly between the two, move it to the higher one.\nEach of the disability items on the SHAQ has a companion aids/devices variable that is used to record what type(s) of assistance, if any, the participant uses for his/her usual activities. These variables (see below) are coded as follows: • 0=No assistance is needed. • 1=A special device is used by the patient in his/her usual activities. • 2=The patient usually needs help from another person. • 3=The patient usually needs BOTH a special device AND help from another person.\nThe scoring variables and scoring rules permit the computation of two disability indices, the Standard Disability Index and the Alternative Disability Index.\nThis question results in a new set of category scores that are computed by adjusting the score for each category, if necessary, based on the patient's use of an aid or device or assistance for that category. If either devices and/or help from another person are checked for a category, the score is set to “2”, unless the score is already “3” (i.e., scores of “0” or “1” are increased to “2”). For example, if the highest score for the dressing category is “1”, and the patient says they use a device for dressing, the computed category score would be “2”. The sum of the computed categories scores is then calculated and divided by the number of categories answered. This gives a score in the 0 to 3 range.\nThe aid and device variables are not used to calculate the alternative disability index; it is calculated by adding the scores for each of the categories and dividing by the number of categories answered. This gives a score in the 0 to 3 range.\nThe standard, validated, patient reported outcome measures tool for SSc patients, the SHAQ, was collected at the time points specified in the study schedules (FIG. 2 and FIGS. 4A and 4B) to assess the participant's quality of life. The SHAQ included a Raynaud's VAS that will also be reported separately.", "key": {"[1]": {"conditions": "Modified ITT, Part A, dose Cilnidipine 20 mg, or 20 mg + Tadalafil 5 mg"}, "[2]": {"conditions": "Pooled Cilnidipine 10 mg and Cilnidipine 10 mg + Tadalafil 5 mg (N = 9), PP Population Part A"}, "[3]": {"conditions": "Pooled Cilnidipine 10 mg and Cilnidipine 10 mg + Tadalafil 5 mg (N = 9), PP Population Part A, Subject 01-110 score excluded"}, "[4]": {"conditions": "Pooled Cilnidipine 20 mg and Cilnidipine 20 mg + Tadalafil 5 mg (N = 8), PP Population Part A"}}, "data": [{"smiles": "COCCOC(=O)C1=C(C)NC(C)=C(C(=O)OC/C=C/c2ccccc2)C1c1cccc([N+](=O)[O-])c1", "note": "(centres unmarked) [Cilnidipine, cilnidipine]", "values": [{"measurement": "SHAQ Finger Ulcers, Percent Change from Baseline, Median", "setting": "[1]", "value": 35.29, "unit": "%"}, {"measurement": "SHAQ Standard Disability Index, Change from Baseline, Mean", "setting": "[1]", "value": "−0.125"}, {"measurement": "SHAQ Standard Disability Index, Change from Baseline, Median", "setting": "[1]", "value": "−0.125"}, {"measurement": "SHAQ Standard Disability Index, Percent Change from Baseline, Mean", "setting": "[1]", "value": "−50.00", "unit": "%"}, {"measurement": "SHAQ Standard Disability Index, Percent Change from Baseline, Median", "setting": "[1]", "value": "−50.00", "unit": "%"}, {"measurement": "SHAQ Visual Analog Scale-Breathing Problems, Change from Baseline, Mean", "setting": "[1]", "value": "−0.833"}, {"measurement": "SHAQ Visual Analog Scale-Breathing Problems, Change from Baseline, Median", "setting": "[1]", "value": "−0.800"}, {"measurement": "SHAQ Visual Analog Scale-Breathing Problems, Percent Change from Baseline, Mean", "setting": "[1]", "value": "−5.56", "unit": "%"}, {"measurement": "SHAQ Visual Analog Scale-Breathing Problems, Percent Change from Baseline, Median", "setting": "[1]", "value": "−66.67", "unit": "%"}, {"measurement": "SHAQ Visual Analog Scale-Intestinal Problems, Change from Baseline, Mean", "setting": "[1]", "value": 0.300}, {"measurement": "SHAQ Visual Analog Scale-Intestinal Problems, Change from Baseline, Median", "setting": "[1]", "value": 0.300}, {"measurement": "SHAQ Visual Analog Scale-Intestinal Problems, Percent Change from Baseline, Mean", "setting": "[1]", "value": 35.00, "unit": "%"}, {"measurement": "SHAQ Visual Analog Scale-Intestinal Problems, Percent Change from Baseline, Median", "setting": "[1]", "value": 35.00, "unit": "%"}, {"measurement": "SHAQ Visual Analog Scale-Pain, Change from Baseline, Mean", "setting": "[1]", "value": "−1.100"}, {"measurement": "SHAQ Visual Analog Scale-Pain, Change from Baseline, Median", "setting": "[1]", "value": "−0.800"}, {"measurement": "SHAQ Visual Analog Scale-Pain, Percent Change from Baseline, Mean", "setting": "[1]", "value": "−52.56", "unit": "%"}, {"measurement": "SHAQ Visual Analog Scale-Pain, Percent Change from Baseline, Median", "setting": "[1]", "value": "−53.33", "unit": "%"}, {"measurement": "SHAQ Visual Analog Scale-Raynaud's, Change from Baseline, Mean", "setting": "[1]", "value": "−1.267"}, {"measurement": "SHAQ Visual Analog Scale-Raynaud's, Change from Baseline, Median", "setting": "[1]", "value": "−1.100"}, {"measurement": "SHAQ Visual Analog Scale-Raynaud's, Percent Change from Baseline, Mean", "setting": "[1]", "value": "−48.63", "unit": "%"}, {"measurement": "SHAQ Visual Analog Scale-Raynaud's, Percent Change from Baseline, Median", "setting": "[1]", "value": "−44.00", "unit": "%"}, {"measurement": "SHAQ Visual Analogue Scale - Finger Ulcers, Change from Baseline, Mean", "setting": "[2]", "value": "−0.267"}, {"measurement": "SHAQ Visual Analogue Scale - Finger Ulcers, Change from Baseline, Median", "setting": "[2]", "value": "−0.100"}, {"measurement": "SHAQ Visual Analogue Scale - Finger Ulcers, Percent Change from Baseline, Mean", "setting": "[2]", "value": "−46.06", "unit": "%"}, {"measurement": "SHAQ Visual Analogue Scale - Finger Ulcers, Percent Change from Baseline, Median", "setting": "[2]", "value": "−31.94", "unit": "%"}, {"measurement": "SHAQ Visual Analogue Scale - Intestinal Problems, Change from Baseline, Mean", "setting": "[2]", "value": "−1.228"}, {"measurement": "SHAQ Visual Analogue Scale - Intestinal Problems, Change from Baseline, Median", "setting": "[2]", "value": "−0.250"}, {"measurement": "SHAQ Visual Analogue Scale - Intestinal Problems, Percent Change from Baseline, Mean", "setting": "[2]", "value": "−27.93", "unit": "%"}, {"measurement": "SHAQ Visual Analogue Scale - Intestinal Problems, Percent Change from Baseline, Median", "setting": "[2]", "value": "−54.13", "unit": "%"}, {"measurement": "SHAQ Visual Analogue Scale - Overall Disease Severity, Change from Baseline, Mean", "setting": "[2]", "value": "−0.606"}, {"measurement": "SHAQ Visual Analogue Scale - Overall Disease Severity, Change from Baseline, Median", "setting": "[2]", "value": "−0.700"}, {"measurement": "SHAQ Visual Analogue Scale - Overall Disease Severity, Percent Change from Baseline, Mean", "setting": "[2]", "value": "−24.68", "unit": "%"}, {"measurement": "SHAQ Visual Analogue Scale - Overall Disease Severity, Percent Change from Baseline, Median", "setting": "[2]", "value": "−30.93", "unit": "%"}, {"measurement": "SHAQ Visual Analogue Scale - Pain, Change from Baseline, Mean", "setting": "[2]", "value": "−0.633"}, {"measurement": "SHAQ Visual Analogue Scale - Pain, Change from Baseline, Median", "setting": "[2]", "value": "−0.700"}, {"measurement": "SHAQ Visual Analogue Scale - Pain, Percent Change from Baseline, Mean", "setting": "[2]", "value": "−20.07", "unit": "%"}, {"measurement": "SHAQ Visual Analogue Scale - Pain, Percent Change from Baseline, Median", "setting": "[2]", "value": "−21.87", "unit": "%"}, {"measurement": "SHAQ Visual Analogue Scale - Raynaud's, Change from Baseline, Mean", "setting": "[2]", "value": "−0.414"}, {"measurement": "SHAQ Visual Analogue Scale - Raynaud's, Change from Baseline, Median", "setting": "[2]", "value": "−0.100"}, {"measurement": "SHAQ Visual Analogue Scale - Raynaud's, Percent Change from Baseline, Mean", "setting": "[2]", "value": "−9.97", "unit": "%"}, {"measurement": "SHAQ Visual Analogue Scale - Raynaud's, Percent Change from Baseline, Median", "setting": "[2]", "value": "−4.39", "unit": "%"}, {"measurement": "SHAQ Visual Analogue Scale - Breathing Problems, Change from Baseline, Mean", "setting": "[3]", "value": "−0.175"}, {"measurement": "SHAQ Visual Analogue Scale - Breathing Problems, Change from Baseline, Median", "setting": "[3]", "value": 0.000}, {"measurement": "SHAQ Visual Analogue Scale - Breathing Problems, Percent Change from Baseline, Mean", "setting": "[3]", "value": "−26.05", "unit": "%"}, {"measurement": "SHAQ Visual Analogue Scale - Breathing Problems, Percent Change from Baseline, Median", "setting": "[3]", "value": "−21.33", "unit": "%"}, {"measurement": "SHAQ Visual Analogue Scale - Breathing Problems, Change from Baseline, Mean", "setting": "[4]", "value": 0.225}, {"measurement": "SHAQ Visual Analogue Scale - Breathing Problems, Change from Baseline, Median", "setting": "[4]", "value": 0.150}, {"measurement": "SHAQ Visual Analogue Scale - Breathing Problems, Percent Change from Baseline, Mean", "setting": "[4]", "value": 93.65, "unit": "%"}, {"measurement": "SHAQ Visual Analogue Scale - Breathing Problems, Percent Change from Baseline, Median", "setting": "[4]", "value": 31.58, "unit": "%"}, {"measurement": "SHAQ Visual Analogue Scale - Finger Ulcers, Change from Baseline, Mean", "setting": "[4]", "value": "−0.950"}, {"measurement": "SHAQ Visual Analogue Scale - Finger Ulcers, Change from Baseline, Median", "setting": "[4]", "value": "−0.050"}, {"measurement": "SHAQ Visual Analogue Scale - Finger Ulcers, Percent Change from Baseline, Mean", "setting": "[4]", "value": "−15.69", "unit": "%"}, {"measurement": "SHAQ Visual Analogue Scale - Finger Ulcers, Percent Change from Baseline, Median", "setting": "[4]", "value": "−48.04", "unit": "%"}, {"measurement": "SHAQ Visual Analogue Scale - Intestinal Problems, Change from Baseline, Mean", "setting": "[4]", "value": 0.200}, {"measurement": "SHAQ Visual Analogue Scale - Intestinal Problems, Change from Baseline, Median", "setting": "[4]", "value": 0.000}, {"measurement": "SHAQ Visual Analogue Scale - Intestinal Problems, Percent Change from Baseline, Mean", "setting": "[4]", "value": "−6.27", "unit": "%"}, {"measurement": "SHAQ Visual Analogue Scale - Intestinal Problems, Percent Change from Baseline, Median", "setting": "[4]", "value": "−29.44", "unit": "%"}, {"measurement": "SHAQ Visual Analogue Scale - Overall Disease Severity, Change from Baseline, Mean", "setting": "[4]", "value": "−1.425"}, {"measurement": "SHAQ Visual Analogue Scale - Overall Disease Severity, Change from Baseline, Median", "setting": "[4]", "value": "−1.550"}, {"measurement": "SHAQ Visual Analogue Scale - Overall Disease Severity, Percent Change from Baseline, Mean", "setting": "[4]", "value": "−47.98", "unit": "%"}, {"measurement": "SHAQ Visual Analogue Scale - Overall Disease Severity, Percent Change from Baseline, Median", "setting": "[4]", "value": "−48.23", "unit": "%"}, {"measurement": "SHAQ Visual Analogue Scale - Pain, Change from Baseline, Mean", "setting": "[4]", "value": "−0.500"}]}]}
